From ChEMBL document CHEMBL1641441, “A novel screening model for the molecular drug for diabetes and obesity based on tyrosine phosphatase Shp2” (Bioorg Med Chem Lett, 2011)
The source made the active and inactive calls. The calls are words filed in the database; no cut-off is given here.

What was measured:
[1] = target: Tyrosine-protein phosphatase non-receptor type 6 (Homo sapiens) (UniProt P29350); experiment: Increase of GST-tagged full length Shp1 activity expressed in Escherichia coli BL21 at 10 uM after 30 mins
[2] = target: Dual specificity protein phosphatase 3 (Homo sapiens) (UniProt P51452); experiment: Increase of GST-tagged full length Vhr activity expressed in Escherichia coli BL21 at 10 uM after 30 mins
[3] = target: T1, Tyrosine-protein phosphatase non-receptor type 7 (Homo sapiens) (UniProt P35236); experiment: Increase of GST-tagged full length HePTP activity expressed in Escherichia coli BL21 at 10 uM after 30 mins
T1 sequence (whole entry): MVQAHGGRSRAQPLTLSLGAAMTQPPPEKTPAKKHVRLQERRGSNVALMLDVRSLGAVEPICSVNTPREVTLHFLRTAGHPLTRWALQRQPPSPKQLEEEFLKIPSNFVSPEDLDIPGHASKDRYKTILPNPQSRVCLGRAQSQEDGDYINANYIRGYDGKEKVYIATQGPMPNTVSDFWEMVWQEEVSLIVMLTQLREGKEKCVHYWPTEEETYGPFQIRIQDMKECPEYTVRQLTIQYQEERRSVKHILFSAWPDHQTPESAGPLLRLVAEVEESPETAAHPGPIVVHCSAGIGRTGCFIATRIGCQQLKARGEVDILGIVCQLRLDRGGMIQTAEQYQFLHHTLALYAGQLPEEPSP

Chain of Dual specificity protein phosphatase 3 (Homo sapiens) (P51452 whole entry, looked up): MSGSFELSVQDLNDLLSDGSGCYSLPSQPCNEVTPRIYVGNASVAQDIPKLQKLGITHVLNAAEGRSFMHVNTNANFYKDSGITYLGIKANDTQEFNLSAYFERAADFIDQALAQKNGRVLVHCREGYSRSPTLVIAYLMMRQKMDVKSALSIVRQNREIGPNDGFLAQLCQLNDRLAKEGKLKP
Chain of Tyrosine-protein phosphatase non-receptor type 6 (Homo sapiens) (P29350 whole entry): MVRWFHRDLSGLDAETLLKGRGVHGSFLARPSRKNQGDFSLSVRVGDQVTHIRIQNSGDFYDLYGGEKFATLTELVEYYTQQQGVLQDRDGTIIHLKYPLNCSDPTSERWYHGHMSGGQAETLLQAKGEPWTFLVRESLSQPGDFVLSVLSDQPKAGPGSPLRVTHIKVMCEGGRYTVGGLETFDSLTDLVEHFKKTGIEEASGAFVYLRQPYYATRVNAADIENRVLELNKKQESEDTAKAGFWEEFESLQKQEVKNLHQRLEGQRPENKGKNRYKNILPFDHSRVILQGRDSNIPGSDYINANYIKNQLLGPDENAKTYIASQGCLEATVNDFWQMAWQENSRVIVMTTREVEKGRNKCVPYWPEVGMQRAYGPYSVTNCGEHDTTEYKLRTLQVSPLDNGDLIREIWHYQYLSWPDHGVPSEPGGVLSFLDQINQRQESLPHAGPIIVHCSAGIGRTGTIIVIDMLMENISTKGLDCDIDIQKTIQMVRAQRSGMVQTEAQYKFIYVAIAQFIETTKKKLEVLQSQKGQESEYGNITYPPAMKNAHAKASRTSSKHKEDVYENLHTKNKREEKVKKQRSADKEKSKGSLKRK

Activity [1]: inactive
Activity [2]: inactive
Activity [3]: inactive
SMILES: CC1(C)CC[C@]2(C(=O)O)CC[C@]3(C)C(=CC[C@@H]4[C@@]5(C)CC[C@H](O)C(C)(C)[C@@H]5CC[C@]43C)[C@@H]2C1
